Source: US8697369B2, “Method for screening a test substance for activating a receptor associated with FGF 21 activity” (National Institute of Advanced Industrial Science and …, priority 2007, dated 2014)
“Also recorded” adds a separate entry of the source.

Tests used:
[1] = tested on: R3c/betaKlotho-expressing cells; assay: Phosphorylation of FRS2 and MAPK (Western blotting) in R3c/betaKlotho-expressing cells; assay type: cell-based, mouse; settings: presence of heparin; 10 minutes stimulation
Protocol: (§1) Each FGFR/betaKlotho-expressing cells obtained in Example 6 were stimulated with FGF, and the activated state (phosphorylated state) of a signaling molecule FRS2 (fibroblast growth factor receptor substrate 2) located downstream of FGFR, and that of MAPK (mitogen activated protein kinase; alias: ERK (extracellular signal-regulated kinase; in general, there are two types of ERKs, namely, ERK1 with a molecular weight of 44 kDa and ERK2 with a molecular weight of 42 kDa)), were analyzed. Different types of cells were stimulated with each FGF in the presence of heparin for 10 minutes, and a cell lysate was then prepared. Thereafter, the phosphorylated degree was evaluated by measuring it by a Western blotting method using a commercially available anti-phosphorylation FRS2 antibody or an anti-phosphorylation MAPK antibody.

[2] = tested on: FGFR4/betaKlotho-expressing BaF3 cells; assay: DNA synthesis (thymidine incorporation) in FGFR4/betaKlotho-expressing BaF3 cells; assay type: cell-based, mouse; settings: BaF3 cells expressing FGFR4 and betaKlotho; presence of heparin
FGFR4/betaKlotho-expressing BaF3 cells, sequence (Q03142 17-366 limits assumed, one chain of several): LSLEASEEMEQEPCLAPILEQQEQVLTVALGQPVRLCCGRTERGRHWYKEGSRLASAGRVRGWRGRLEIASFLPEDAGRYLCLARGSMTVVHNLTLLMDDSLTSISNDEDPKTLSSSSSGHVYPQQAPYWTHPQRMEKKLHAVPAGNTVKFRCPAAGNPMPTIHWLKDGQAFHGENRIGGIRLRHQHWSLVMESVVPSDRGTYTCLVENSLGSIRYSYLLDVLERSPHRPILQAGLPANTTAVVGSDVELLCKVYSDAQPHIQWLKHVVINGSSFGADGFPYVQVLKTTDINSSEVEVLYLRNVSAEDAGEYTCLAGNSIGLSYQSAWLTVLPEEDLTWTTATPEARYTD
Protocol: (§2) A commonly used measurement method is a cell growth stimulating activity measurement method described in Ornitz, D. M., Xu, J., Colvin, J. S., McEwen, D. G., MacArthur, C. A., Coulier, F., Gao, G. and Goldfarb, M. (1996) Receptor specificity of the fibroblast growth factor family. J Biol Chem, 271, 15292-15297. The summary thereof is as follows. FGF used as a measurement target is added to a culture solution containing a cultured cell having an FGF receptor on the surface thereof, and the obtained mixture is cultured for a certain period of time. Thereafter, a labeled thymidine is added to the culture solution, followed by further culture for a certain period of time. By measuring the amount of the labeled thymidine incorporated into polymeric DNA during the culture, the degree of FGF to activate DNA synthesis is evaluated. (In the present invention as well, this method was adopted when the activity of FGF21 was measured in Examples 4, 5, 6, 8, 9, and 10.)
(§3) Whether other receptor molecules can also act as such FGF receptors was examined. An expression vector containing each FGFR (FGFR1b, R1c, R2b, R2c, R3b, R3c, and R4) (described in Ornitz, D. M., Xu, J., Colvin, J. S., McEwen, D. G., MacArthur, C. A., Coulier, F., Gao, G. and Goldfarb, M. (1996) Receptor specificity of the fibroblast growth factor family. J Biol Chem, 271, 15292-15297.) was introduced into betaKlotho-expressing BaF3 cells, so as to obtain clones that were resistant to Puromycin and G418, thereby obtaining FGFR/betaKlotho-expressing cells. Such cells were stimulated with FGF21, and the amount of DNA synthesized was measured.
(§4) The activity of FGF21 to stimulate the DNA synthesis of BaF3 cells that had expressed each FGFR (FGFR1c, R2c, F3c, and R4) as well as betaKlotho was compared with the activity of FGF19, which was evolutionally relative to FGF21. […] The cells were stimulated with FGF21, FGF19, and FGF1 in the presence of heparin, while changing the amounts of FGF21, FGF19, and FGF1, as shown in the figure, and the amount of DNA synthesized was then measured.

[3] = tested on: FGFR4/betaKlotho-expressing cells; assay: Phosphorylation of FRS2 and MAPK (Western blotting) in FGFR4/betaKlotho-expressing cells; assay type: cell-based, mouse; settings: presence of heparin; 10 minutes stimulation
FGFR4/betaKlotho-expressing cells, sequence (Q03142 143-366 limits assumed, one chain of several): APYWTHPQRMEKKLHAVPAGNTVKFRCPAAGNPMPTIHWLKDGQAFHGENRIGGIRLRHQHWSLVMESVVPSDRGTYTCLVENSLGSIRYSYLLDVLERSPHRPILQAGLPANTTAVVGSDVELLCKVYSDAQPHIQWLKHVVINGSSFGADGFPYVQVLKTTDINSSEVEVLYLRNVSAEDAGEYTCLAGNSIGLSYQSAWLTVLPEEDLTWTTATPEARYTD
Protocol: as §1

[4] = target: T1, FGFR2c/betaKlotho-expressing cells (Mus musculus, UniProt P21803+Q99N32); assay: Phosphorylation of FRS2 and MAPK (Western blotting) in FGFR2c/betaKlotho-expressing cells; assay type: cell-based; settings: presence of heparin; 10 minutes stimulation
T1 construct: the entire-length cDNA of mouse betaKlotho was cloned into an animal cell expression vector; expressed in transfected cells; host or cells: BaF3 (mouse pro-B) cells
T1 sequence (P21803 22-821, one chain of several): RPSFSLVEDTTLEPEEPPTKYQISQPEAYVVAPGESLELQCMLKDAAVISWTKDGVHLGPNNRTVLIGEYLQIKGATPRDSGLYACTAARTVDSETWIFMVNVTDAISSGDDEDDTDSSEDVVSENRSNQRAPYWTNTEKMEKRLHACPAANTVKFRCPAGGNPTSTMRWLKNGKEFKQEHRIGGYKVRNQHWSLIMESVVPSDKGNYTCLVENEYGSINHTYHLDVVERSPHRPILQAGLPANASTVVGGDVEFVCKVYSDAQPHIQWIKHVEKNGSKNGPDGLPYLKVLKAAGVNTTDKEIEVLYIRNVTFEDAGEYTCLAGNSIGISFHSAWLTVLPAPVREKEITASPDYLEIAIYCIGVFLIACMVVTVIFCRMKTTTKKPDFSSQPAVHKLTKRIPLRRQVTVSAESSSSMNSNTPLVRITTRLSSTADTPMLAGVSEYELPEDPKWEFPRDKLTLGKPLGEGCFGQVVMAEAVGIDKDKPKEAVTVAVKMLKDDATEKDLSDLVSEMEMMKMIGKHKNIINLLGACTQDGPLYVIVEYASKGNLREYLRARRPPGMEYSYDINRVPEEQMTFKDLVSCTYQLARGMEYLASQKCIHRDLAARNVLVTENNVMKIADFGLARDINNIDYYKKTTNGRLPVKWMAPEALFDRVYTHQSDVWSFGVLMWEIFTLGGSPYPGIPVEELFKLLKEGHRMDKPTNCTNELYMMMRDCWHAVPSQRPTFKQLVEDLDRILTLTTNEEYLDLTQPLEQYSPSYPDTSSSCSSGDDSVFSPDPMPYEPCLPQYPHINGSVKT
Protocol: as §1

[5] = tested on: FGFR3c/betaKlotho-expressing BaF3 cells; assay: DNA synthesis (thymidine incorporation) in FGFR3c/betaKlotho-expressing BaF3 cells; assay type: cell-based, mouse
FGFR3c/betaKlotho-expressing BaF3 cells, sequence (Q61851 21-369 limits assumed, one chain of several): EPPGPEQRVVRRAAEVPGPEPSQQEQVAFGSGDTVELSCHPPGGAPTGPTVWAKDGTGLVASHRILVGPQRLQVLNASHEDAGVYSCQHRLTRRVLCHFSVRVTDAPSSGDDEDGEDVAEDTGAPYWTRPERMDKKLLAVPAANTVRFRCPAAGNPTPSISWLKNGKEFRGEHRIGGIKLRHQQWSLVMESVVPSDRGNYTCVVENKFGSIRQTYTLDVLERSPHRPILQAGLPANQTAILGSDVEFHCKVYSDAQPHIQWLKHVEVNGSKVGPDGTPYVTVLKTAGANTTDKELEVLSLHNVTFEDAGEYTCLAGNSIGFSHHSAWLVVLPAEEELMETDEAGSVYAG
Protocol: as §2, §3
The activity of FGF21 to stimulate the DNA synthesis of BaF3 cells that had expressed each FGFR (FGFR1c, R2c, F3c, and R4) as well as betaKlotho was compared with the activity of FGF19, which was evolutionally relative to FGF21. By procedures opposite to those of Example 5, namely, an expression vector containing betaKlotho was introduced into BaF3 cells that had expressed each type of FGFR, so as to obtain Puromycin- and G418-resistant clones, thereby obtaining FGFR/betaKlotho-expressing cells. The cells were stimulated with FGF21, FGF19, and FGF1 in the presence of heparin, while changing the amounts of FGF21, FGF19, and FGF1, as shown in the figure, and the amount of DNA synthesized was then measured.

[6] = target: T2, FGFR2c/betaKlotho-expressing BaF3 cells (Mus musculus, UniProt P21803+Q99N32); assay: DNA synthesis (thymidine incorporation) in FGFR2c/betaKlotho-expressing BaF3 cells; assay type: cell-based; settings: BaF3 cells expressing FGFR2c and betaKlotho; presence of heparin
T2 construct: the entire-length cDNA of mouse betaKlotho was cloned into an animal cell expression vector; expressed in transfected cells; host or cells: BaF3 (mouse pro-B) cells
T2 sequence (P21803 22-821, one chain of several): as the sequence (P21803 22-821, one chain of several) above
Protocol: as §2, §3, §4

[7] = target: T3, R1c/betaKlotho-expressing cells (Mus musculus, UniProt P16092+Q99N32); assay: Phosphorylation of FRS2 and MAPK (Western blotting) in R1c/betaKlotho-expressing cells; assay type: cell-based; settings: presence of heparin; 10 minutes stimulation
T3 construct: the entire-length cDNA of mouse FGFR1c had been cloned; the entire-length cDNA of mouse betaKlotho was cloned into an animal cell expression vector; expressed in transfected cells; host or cells: BaF3 (mouse pro-B) cells
T3 sequence (P16092 22-822, one chain of several): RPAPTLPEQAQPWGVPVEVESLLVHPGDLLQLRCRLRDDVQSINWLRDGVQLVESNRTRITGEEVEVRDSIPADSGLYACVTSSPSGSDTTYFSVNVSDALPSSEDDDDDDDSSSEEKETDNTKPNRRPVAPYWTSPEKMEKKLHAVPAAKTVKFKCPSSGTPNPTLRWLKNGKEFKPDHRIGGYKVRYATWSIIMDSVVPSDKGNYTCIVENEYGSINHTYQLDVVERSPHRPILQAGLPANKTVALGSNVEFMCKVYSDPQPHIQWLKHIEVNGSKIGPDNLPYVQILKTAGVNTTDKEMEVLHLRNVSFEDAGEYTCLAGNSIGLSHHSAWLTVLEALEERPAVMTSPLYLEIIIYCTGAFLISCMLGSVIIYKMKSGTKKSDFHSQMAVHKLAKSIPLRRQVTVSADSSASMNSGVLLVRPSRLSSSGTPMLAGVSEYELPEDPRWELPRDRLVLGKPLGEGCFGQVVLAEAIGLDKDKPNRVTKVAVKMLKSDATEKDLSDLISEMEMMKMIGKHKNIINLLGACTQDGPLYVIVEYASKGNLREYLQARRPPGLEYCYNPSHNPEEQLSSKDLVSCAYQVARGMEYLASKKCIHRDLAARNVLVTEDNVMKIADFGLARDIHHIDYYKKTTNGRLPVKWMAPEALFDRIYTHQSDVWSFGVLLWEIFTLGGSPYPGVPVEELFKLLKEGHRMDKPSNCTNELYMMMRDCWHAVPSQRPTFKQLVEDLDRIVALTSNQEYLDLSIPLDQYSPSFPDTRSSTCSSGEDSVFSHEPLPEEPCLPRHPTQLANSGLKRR
Protocol: as §1

[8] = target: T4, FGFR1c/betaKlotho-expressing BaF3 cells (Mus musculus, UniProt P16092+Q99N32); assay: DNA synthesis (thymidine incorporation) in FGFR1c/betaKlotho-expressing BaF3 cells; assay type: cell-based
T4 construct: the entire-length cDNA of mouse FGFR1c had been cloned; the entire-length cDNA of mouse betaKlotho was cloned into an animal cell expression vector; expressed in transfected cells; host or cells: BaF3 (mouse pro-B) cells
T4 sequence (P16092 22-822, one chain of several): as above
Protocol: as §2
FGFR1c-expressing BaF3 cells and FGFR1c- and betaKlotho-expressing BaF3 cells were prepared as follows. In the case of FGFR1c-expressing BaF3 cells, an animal cell expression vector into which the entire-length cDNA of mouse FGFR1c had been cloned (described in Ornitz, D. M., Xu, J., Colvin, J. S., McEwen, D. G., MacArthur, C. A., Coulier, F., Gao, G. and Goldfarb, M. (1996) Receptor specificity of the fibroblast growth factor family. J Biol Chem, 271, 15292-15297.) was introduced into BaF3 cells by an electroporation method. The cells were then cultured in the presence of G418 for approximately 2 weeks, so as to obtain drug-resistant clones. Thereafter, such clones were obtained as those capable of growing as a result of FGF1 stimulation. In the case of both FGFR1c- and betaKlotho-expressing BaF3 cells, the entire-length cDNA of mouse betaKlotho was cloned into an animal cell expression vector, and it was then introduced into the FGFR1c-expressing BaF3 cells. The cells were then cultured in the presence of Puromycin and G418 for approximately 2 weeks, so as to obtain drug-resistant clones. In the case of only betaKlotho-expressing BaF3 cells, a betaKlotho-expressing vector was introduced into BaF3 cells, and Puromycin-resistant clones were then obtained. The BaF3 cells, into which the aforementioned genes had been each introduced, were maintained in an RPMI1640 medium containing 10% FBS and interleukin 3 (IL3, supplied by adding a 5% condition medium of WEHI-3 cells). For the growth stimulation experiment, the cells were washed with an RPMI1640 medium, and they were then suspended in an RPMI1640 medium containing 10% FBS, followed by inoculating the suspension on a culture plate. Thereafter, the resultant cells were used.
Immediately after inoculation, BaF3 cells that had expressed each clone and only FGFR1c were stimulated by addition of FGF21 (open bar) or PBS (filled bar) used as a control in the presence of heparin, and they were then cultured for 42 hours. Thereafter, tritium-labeled thymidine was added to the culture solution, and the culture was further continued for 6 hours. Thereafter, the amount of thymidine incorporated into the cells was measured, so as to evaluate DNA synthesis. A DNA synthesis value obtained when the cells were not stimulated with FGF21 was defined as 1, and the ratio of a DNA synthesis value obtained by stimulating with FGF21 to the aforementioned DNA synthesis value was expressed using magnification. […]

[9] = target: T5, betaKlotho-expressing BaF3 cells (Mus musculus, UniProt Q99N32); assay: DNA synthesis (thymidine incorporation) in BaF3 cells expressing only betaKlotho; assay type: cell-based; settings: presence or absence of heparin
T5 construct: the entire-length cDNA of mouse betaKlotho was cloned into an animal cell expression vector; expressed in transfected cells; host or cells: BaF3 (mouse pro-B) cells
T5 sequence (Q99N32 1-1043): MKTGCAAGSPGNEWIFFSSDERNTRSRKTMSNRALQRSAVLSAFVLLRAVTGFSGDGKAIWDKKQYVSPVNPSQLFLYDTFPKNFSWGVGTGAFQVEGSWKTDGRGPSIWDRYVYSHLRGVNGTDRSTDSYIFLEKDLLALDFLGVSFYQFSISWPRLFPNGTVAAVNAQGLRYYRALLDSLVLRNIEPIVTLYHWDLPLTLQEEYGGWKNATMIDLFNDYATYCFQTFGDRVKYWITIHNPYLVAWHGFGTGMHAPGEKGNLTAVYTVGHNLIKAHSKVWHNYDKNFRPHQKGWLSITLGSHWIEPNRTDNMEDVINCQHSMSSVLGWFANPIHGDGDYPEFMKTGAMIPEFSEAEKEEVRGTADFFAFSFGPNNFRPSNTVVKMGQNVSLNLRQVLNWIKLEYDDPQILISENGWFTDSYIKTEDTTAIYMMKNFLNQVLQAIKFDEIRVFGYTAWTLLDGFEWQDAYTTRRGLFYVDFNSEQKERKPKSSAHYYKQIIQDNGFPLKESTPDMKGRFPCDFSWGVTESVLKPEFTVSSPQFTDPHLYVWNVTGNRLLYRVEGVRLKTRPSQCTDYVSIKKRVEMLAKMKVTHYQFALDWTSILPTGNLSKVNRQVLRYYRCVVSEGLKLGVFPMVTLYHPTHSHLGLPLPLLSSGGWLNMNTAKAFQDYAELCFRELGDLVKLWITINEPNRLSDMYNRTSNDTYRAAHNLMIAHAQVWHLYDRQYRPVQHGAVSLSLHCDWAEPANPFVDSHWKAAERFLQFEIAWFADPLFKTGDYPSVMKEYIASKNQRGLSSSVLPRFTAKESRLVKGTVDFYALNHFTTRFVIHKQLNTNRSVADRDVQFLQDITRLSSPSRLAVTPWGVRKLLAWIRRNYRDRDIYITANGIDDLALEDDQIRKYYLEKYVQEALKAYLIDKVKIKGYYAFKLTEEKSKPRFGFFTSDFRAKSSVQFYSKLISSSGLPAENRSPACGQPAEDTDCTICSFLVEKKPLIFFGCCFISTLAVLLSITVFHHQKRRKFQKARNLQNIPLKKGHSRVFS
Protocol: as §2, with “10.) […]” for “10.)”
Immediately after inoculation, BaF3 cells that had expressed each clone and only FGFR1c were stimulated by addition of FGF21 (open bar) or PBS (filled bar) used as a control in the presence of heparin, and they were then cultured for 42 hours. […] Thereafter, the amount of thymidine incorporated into the cells was measured, so as to evaluate DNA synthesis. […]

R3c/betaKlotho-expressing cells, sequence (Q61851 21-369 limits assumed, one chain of several): as the sequence (Q61851 21-369 limits assumed, one chain of several) above

FGF19: FGF family member evolutionally relative to FGF21, used for comparison
phosphorylation of FRS2 and MAPK [1]: significantly increase the phosphorylation | DNA synthesis (thymidine incorporated into the cells) [2]: strong activity | phosphorylation of FRS2 and MAPK [3]: significantly increase the phosphorylation | phosphorylation of FRS2 and MAPK [4]: significantly increase the phosphorylation | DNA synthesis (thymidine incorporated into the cells) ([5]; BaF3 cells expressing FGFR3c and betaKlotho): strong activity | DNA synthesis (thymidine incorporated into the cells) [6]: strong activity | phosphorylation of FRS2 and MAPK [7]: significantly increase the phosphorylation | DNA synthesis (thymidine incorporated into the cells) ([8]; BaF3 cells expressing FGFR1c and betaKlotho, presence or absence of heparin): strong activity

heparin [reference compound]
effect of heparin on reactivity with FGF21 (DNA synthesis) ([5]; FGFR3c/betaKlotho-expressing BaF3 cells stimulated with FGF21): reactivity was increased | effect of heparin on the action of FGF21 (DNA synthesis) ([8]; FGFR1c/betaKlotho-expressing BaF3 cells stimulated with FGF21): increases the action of FGF21; also recorded: reactivity was increased

interleukin 3 [reference compound]
DNA synthesis (thymidine incorporated into the cells) [9]: significantly grew
